Consider 16 compounds from article PMC4835042 (Bioorganic & medicinal chemistry letters, 2015).

In series [1] the target is T1, human mGlu3 (Homo sapiens, UniProt Q14832).
Series [2] has as its target T2, human mGlu5 (Homo sapiens, UniProt P41594). In words: Calcium mobilization assay, mGlu5 PAM activity. The note with it: for decrease in mGlu5 potency versus comparator analog: 4n vs 4k, 4x vs 4c, 4z vs unsubstituted -CH2-O- linker, 20 vs piperazinone core; for mGlu5 activity in words: 4y vs 4k, 21a-c pyrazole unit modifications. The class given is cell-based. For orientation: Calcium flux is commonly read through the fluorescence of an indicator in the cells.

Series [3] is described as follows: High content cytotoxicity assay.
Series [4] is described as follows: Predicted rat hepatic clearance from microsomal CLint. It counts as in vitro ADME. The note with it: predicted hepatic clearance based on microsomal CLint data.
In the next series the test system is Na channels. In words: Cardiovascular ion channel interaction, Na channel. The following applies: read-out: Na channel IC50.
Series [5] in a line: Terminal unbound brain concentration in the AHL study. The note with it: rat, in vivo, po, 10 mg/kg.
A further series is described as follows: Toxicology rat MTD study. It counts as in vivo.
The subject of a further series is Ca channels. The series is described as follows: Cardiovascular ion channel interaction, Ca channel. The following applies: read-out: Ca channel IC50.
In series [6] the target is T1, human mGlu3. The series is described as follows: cell-based.
Series [7] addresses T2, human mGlu5. The following applies: cited from earlier work.

T1 sequence (Q14832 23-879): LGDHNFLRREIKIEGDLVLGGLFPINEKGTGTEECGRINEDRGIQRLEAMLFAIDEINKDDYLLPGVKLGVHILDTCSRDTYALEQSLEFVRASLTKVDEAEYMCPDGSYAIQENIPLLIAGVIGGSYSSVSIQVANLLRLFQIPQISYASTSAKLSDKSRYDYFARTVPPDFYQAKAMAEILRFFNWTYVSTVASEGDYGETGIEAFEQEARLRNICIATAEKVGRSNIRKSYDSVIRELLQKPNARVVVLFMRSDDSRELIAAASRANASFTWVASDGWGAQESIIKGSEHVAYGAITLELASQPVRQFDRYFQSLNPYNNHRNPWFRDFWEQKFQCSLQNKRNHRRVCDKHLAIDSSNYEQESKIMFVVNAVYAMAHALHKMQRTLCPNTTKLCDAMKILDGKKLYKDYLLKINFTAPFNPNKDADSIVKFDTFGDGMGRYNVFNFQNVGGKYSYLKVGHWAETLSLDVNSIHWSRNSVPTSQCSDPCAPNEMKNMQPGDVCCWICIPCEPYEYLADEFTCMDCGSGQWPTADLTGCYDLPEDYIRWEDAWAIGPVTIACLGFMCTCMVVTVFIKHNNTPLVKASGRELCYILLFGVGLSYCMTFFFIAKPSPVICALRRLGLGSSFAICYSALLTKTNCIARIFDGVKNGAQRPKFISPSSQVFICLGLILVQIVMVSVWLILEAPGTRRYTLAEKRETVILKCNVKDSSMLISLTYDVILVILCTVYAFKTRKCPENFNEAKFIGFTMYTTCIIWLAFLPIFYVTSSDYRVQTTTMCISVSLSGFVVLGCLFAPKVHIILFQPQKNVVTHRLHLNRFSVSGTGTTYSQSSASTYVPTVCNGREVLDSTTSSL
T2 sequence (P41594 21-1212): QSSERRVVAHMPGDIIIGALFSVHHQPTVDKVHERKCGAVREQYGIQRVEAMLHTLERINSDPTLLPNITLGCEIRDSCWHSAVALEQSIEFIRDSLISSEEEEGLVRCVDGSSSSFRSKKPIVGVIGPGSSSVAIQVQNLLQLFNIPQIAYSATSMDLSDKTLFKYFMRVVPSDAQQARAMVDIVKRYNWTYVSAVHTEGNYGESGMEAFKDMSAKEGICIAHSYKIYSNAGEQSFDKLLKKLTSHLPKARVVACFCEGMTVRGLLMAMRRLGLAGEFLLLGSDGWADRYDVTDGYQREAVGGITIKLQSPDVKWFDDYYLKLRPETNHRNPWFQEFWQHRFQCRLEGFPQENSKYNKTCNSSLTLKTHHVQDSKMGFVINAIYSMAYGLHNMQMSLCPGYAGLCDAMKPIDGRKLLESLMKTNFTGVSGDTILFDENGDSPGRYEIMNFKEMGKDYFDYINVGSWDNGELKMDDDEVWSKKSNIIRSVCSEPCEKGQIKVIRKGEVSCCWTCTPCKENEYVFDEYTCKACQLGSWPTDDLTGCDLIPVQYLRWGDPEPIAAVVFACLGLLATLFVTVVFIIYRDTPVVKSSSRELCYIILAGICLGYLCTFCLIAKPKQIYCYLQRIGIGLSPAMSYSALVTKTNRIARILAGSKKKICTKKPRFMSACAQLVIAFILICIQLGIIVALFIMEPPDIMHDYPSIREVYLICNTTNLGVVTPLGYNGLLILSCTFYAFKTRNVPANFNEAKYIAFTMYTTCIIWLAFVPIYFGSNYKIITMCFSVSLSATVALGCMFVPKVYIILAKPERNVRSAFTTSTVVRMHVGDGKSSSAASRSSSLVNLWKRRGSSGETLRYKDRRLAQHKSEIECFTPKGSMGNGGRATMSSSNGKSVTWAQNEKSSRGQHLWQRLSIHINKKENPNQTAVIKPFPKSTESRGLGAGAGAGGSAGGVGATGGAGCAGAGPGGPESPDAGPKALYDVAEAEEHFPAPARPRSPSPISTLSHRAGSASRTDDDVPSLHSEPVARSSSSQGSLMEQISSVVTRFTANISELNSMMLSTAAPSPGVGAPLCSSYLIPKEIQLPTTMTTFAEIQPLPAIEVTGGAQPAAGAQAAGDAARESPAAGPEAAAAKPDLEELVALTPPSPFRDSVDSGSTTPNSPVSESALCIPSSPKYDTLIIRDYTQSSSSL

Take `O=C1c2cc(COc3ccccc3)nn2CCN1c1ccc(F)cc1` [4c]: the “extent of mGlu3 antagonism” value at human mGlu3 [1] was “full antagonism”. For the same compound, on human mGlu5 [2] (HEK293 cells expressing human mGlu5, average of three or more determinations), the “pEC50 (±SEM)” value was 7.19 ± 0.02. Consider `Cc1ccc(N2CCn3nc(COc4ccccc4)cc3C2=O)cc1` [4f], for which, at human mGlu3 [1], the “extent of mGlu3 antagonism” value was “full antagonism”.

Consider `O=C1c2cc(COc3ccccc3)nn2CCN1c1ccccn1` [4h], for which the “increased mGlu5 potency over the 3- and 4- pyridyl isomers (4i,j)” value on human mGlu5 [2] is ~ 3 fold.

In general, IC50 refers to the concentration that gives 50% inhibition. The compound `O=C1c2cc(COc3ccccc3)nn2CCN1c1ccc(F)cn1` [4k] had a high content cytotoxicity in series [3] of over 100 µM. Moreover, the “Rat CLhep” value in series [4] is reported as 34.5 mL/min/kg. Further, the IC50 with Na channels and with Ca channels was over 10 µM throughout. In series [5], this compound came in with a concentration at 90 min of 313 nM. Besides, the “death of animals at the highest dose” value in “Toxicology rat MTD study” (600 mg/kg p.o., rat MTD study) is 2/6. Further, the “signs of CNS-related side-effects (compulsive behavior, pedaling movements of the forepaws, tremors)” value in the series “Toxicology rat MTD study” (rat MTD study 25, 75, 150, 300 and 600 mg/kg p.o.) is “starting at the lowest tested dose”. In addition, the AMES result in the series “AMES” is “benign profile”.

Broadly, the EC50 is the concentration giving half of the maximal effect. In the case of `Cc1ccc(N2CCn3nc(COc4ccccc4)cc3C2=O)nc1` [4l], at human mGlu3 [1], the “functional selectivity for mGlu5 versus mGlu3 antagonist activity” value was over 50 fold. For the same compound, the EC50 at human mGlu3 [6] was over 10 µM.

As for `O=C1c2cc(COc3ccccc3)nn2CCN1c1ncc(F)cn1` [4n], at human mGlu5 [2], the “decrease in mGlu5 potency versus comparator analog” value was ~ 6 fold. Consider `O=C1c2cc(COc3ccc(F)cc3)nn2CCN1c1ccc(F)cc1` [4q], for which the “extent of mGlu3 antagonism” value at human mGlu3 [1] was “full antagonism”.

For `O=C1c2cc(COc3ccccn3)nn2CCN1c1ccc(F)cc1` [4s], the “extent of mGlu3 antagonism” value at human mGlu3 [1] is given as “full antagonism”. Turning to `O=C1c2cc(COc3cccc(F)c3)nn2CCN1c1ccc(F)cn1` [4w], the EC50 on human mGlu3 [6] came to 0.14 µM. This counts as sub-micromolar.

On to `O=C1c2cc(OCc3ccccc3)nn2CCN1c1ccc(F)cc1` [4x], for which the “decrease in mGlu5 potency versus comparator analog” value at human mGlu5 [2] is listed as ~ 2.5 fold. The “Rat CLhep” value in [4] was 34.6 mL/min/kg. Further, the concentration at 90 min in [5] stood at 376 nM.

Take `O=C1c2cc(OCc3ccccc3)nn2CCN1c1cc(F)ccn1` [4y]: on human mGlu5 [2], the “mGlu5 activity in words” value was “complete loss of activity”. As to `CC(Oc1ccccc1)c1cc2n(n1)CCN(c1ccc(F)cc1)C2=O` (stereo not drawn) [4z], the “decrease in mGlu5 potency versus comparator analog” value on human mGlu5 [2] was over 100 fold.

Take `O=C1c2nc(COc3ccccc3)nn2CCN1c1ccc(F)cc1` [21a]: on human mGlu5 [2], the “mGlu5 activity in words” value is reported as “remarkable loss of mGlu5 potency”. Same read-out and setting: to `Cc1c(COc2ccccc2)nn2c1C(=O)N(c1ccc(F)cc1)CC2` [21b] belongs “remarkable loss of mGlu5 potency”. For the compound `O=C(c1ccc(F)cc1)N1CCc2oc(COc3ccccc3)nc2C1` [compound 1], the “glutamate CRC fold-shift (FS)” value at human mGlu5 [7] was 11.

With `O=C1c2cc(COc3ccccc3)nn2CCCN1c1ccc(F)cc1` [compound 20], the “decrease in mGlu5 potency versus comparator analog” value on human mGlu5 [2] was ~ 3 fold.
